Patent US8178658B2 (Dow AgroSciences, LLC, priority 2008, dated 2012)

Assays:
[1] = test system: beet armyworm (BAW; Spodoptera exigua: Lepidoptera); assay: 96-well microtiter plate-based high throughput (HTS) diet bioassay on beet armyworm (BAW HTS); type: in vivo; settings: for BAW HTS: BAW eggs, 12 μg test compound per well, mortality at 6 d post-treatment, mortality class
Procedure, shortened: (§1)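 HTS: eggs on diet topped with 12 μg cpd/well; dark, 29° C; mortality day 6; mean of 6 reps. Tray: 3–5 L2 larvae/well; diet dosed 50 μg/cm^2; 25° C, 14:10 L:D; 6 d; mean of 8 wells. Scored as ≥50% mortality or not.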

[2] = test system: beet armyworm (BAW; Spodoptera exigua: Lepidoptera); assay: 128-well diet tray assay on beet armyworm (BAW 50); type: in vivo
Procedure, shortened: as §1

[3] = 96-well microtiter plate HTS diet assay
[4] = 128-well diet tray assay; 50 μg/cm^2 of test compound on diet; second instar BAW larvae; mortality class

SMILES	BAW HTS ([1]; 96-well HTS diet assay)	BAW HTS [1, 3]	BAW 50 ug/cm2 [2, 4]	BAW HTS ([1]; 96-well HTS diet bioassay)	BAW 50 ug/cm2 ([2]; 128-well diet tray assay, second instar BAW larvae, 50 μg/cm^2 of test compound on diet; mortality class)	pest or weed control at 12 µg/well, 12 µg/well ([1]; Spodoptera exigua, 144 h, read-out: BAW HTS) [%]	pest or weed control at 50 µg/cm2, 50 µg/cm2 ([2]; Spodoptera exigua, 144 h, read-out: BAW 50 ug/cm2) [%]
CCO[C@@H]1[C@@H](OC)[C@H](C)O[C@@H](OC(=O)Nc2ccc(-c3ncn(-c4ccc(OC(F)(F)F)cc4)n3)cc2Br)[C@@H]1OC [Compound 223]	B (either (1) the compound was tested and less than 50 percent mortality was observed or (2) the compound was not tested)	B (either (1) the compound was tested and less than 50 percent mortality was observed or (2) the compound was not tested)	A (the compound was tested and at least 50 percent mortality was observed)				
CCOC1C(OC)C(C)OC(ON=Cc2ccc(-c3nc(-c4ccc(OC(F)(F)F)cc4)ns3)cc2)C1OC (stereo not shown) [Compound 128]		B (either (1) the compound was tested and less than 50 percent mortality was observed or (2) the compound was not tested)	A (the compound was tested and at least 50 percent mortality was observed)	B (either (1) the compound was tested and less than 50 percent mortality was observed or (2) the compound was not tested)			
COC1C(C)OC(ON=Cc2ccc(-c3cn(-c4ccc(C(F)(F)F)cc4)cn3)cc2)C(OC)C1OC (stereo not shown) [Compound 42]		B (either (1) the compound was tested and less than 50 percent mortality was observed or (2) the compound was not tested)	A (the compound was tested and at least 50 percent mortality was observed)	B (either (1) the compound was tested and less than 50 percent mortality was observed or (2) the compound was not tested)			
COC1C(C)OC(ON=Cc2ccc(-n3ccc(-c4ccc(Cl)cc4)n3)cc2)C(OC)C1OC (stereo not shown) [Compound 2]	A (the compound was tested and at least 50 percent mortality was observed)			A (the compound was tested and at least 50 percent mortality was observed)	B (either (1) the compound was tested and less than 50 percent mortality was observed or (2) the compound was not tested)		
CCO[C@@H]1[C@@H](OC)[C@H](C)O[C@@H](OC(=O)Nc2ccc(-c3ncn(-c4ccc(OC(F)(F)C(F)(F)F)cc4)n3)cc2Br)[C@@H]1OC [Compound 224]	B (either (1) the compound was tested and less than 50 percent mortality was observed or (2) the compound was not tested)	B (either (1) the compound was tested and less than 50 percent mortality was observed or (2) the compound was not tested)	A (the compound was tested and at least 50 percent mortality was observed)				
COC1C(C)OC(ON=Cc2ccc(-c3cc(-c4ccc(OC(F)(F)F)cc4)ncn3)cc2)C(OC)C1OC (stereo not shown) [Compound 140]	B (either (1) the compound was tested and less than 50 percent mortality was observed or (2) the compound was not tested)	B (either (1) the compound was tested and less than 50 percent mortality was observed or (2) the compound was not tested)	A (the compound was tested and at least 50 percent mortality was observed)				
CCCO[C@@H]1[C@@H](OC)[C@H](C)O[C@@H](OC(=O)N(CO)c2ccc(-c3ncn(-c4ccc(OC(F)(F)C(F)(F)F)cc4)n3)cc2)[C@@H]1OC [Compound 257, hydroxymethyl {4-[1-(4-pentafluoroethoxy-phenyl)-1H-[1,2,4]triazol-3-yl]-phenyl}-carbamic acid (2S,3R,4R,5S,6S)-4-propoxy-3,5-dimethoxy-6-methyl-tetrahydropyran-2-yl ester]		B (either (1) the compound was tested and less than 50 percent mortality was observed or (2) the compound was not tested)	A (the compound was tested and at least 50 percent mortality was observed)			< 50	> 50
COC1C(C)OC(ON=Cc2ccc(-c3nn(-c4c(F)c(F)c(C(F)(F)F)c(F)c4F)c(=O)[nH]3)cc2)C(OC)C1OC (stereo not shown) [Compound 99]		B (either (1) the compound was tested and less than 50 percent mortality was observed or (2) the compound was not tested)	A (the compound was tested and at least 50 percent mortality was observed)	B (either (1) the compound was tested and less than 50 percent mortality was observed or (2) the compound was not tested)			
